# Data from US10751335B2 (priority 2016, dated 2020).
# Tests used:
# [1] = tested on: mice; conditions: mouse, in vivo
# [2] = biological target: human MOR (Homo sapiens (Human), UniProt P35372)
SMILES,constipation following acute administration [1],G/βarr2 bias factor [2]
CN1CC[C@]23c4c5ccc(O)c4O[C@H]2[C@@H](O)C=C[C@H]3[C@H]1C5 [morphine],induced constipation,–
COc1ccsc1CNCC[C@@]1(c2ccccn2)CCOC2(CCCC2)C1 [TRV-130],–,3.0
